In publication PMC4890880 (ACS infectious diseases, 2016):
Like-named read-outs stand apart in the source and are kept apart here.

Key:
[1] = tested on: Plasmodium berghei (Pb-Luc) exoerythrocytic-stage parasites; details: for normalized signal at concentration 0.000508053 / normalized signal at concentration 0.00152416 / normalized signal at concentration 0.00457247 / normalized signal at concentration 0.0137174 / normalized signal at concentration 0.0411523 / normalized signal at concentration 0.123457 / normalized signal at concentration 0.37037 / normalized signal at concentration 1.11111 / normalized signal at concentration 3.33333 / normalized signal at concentration 10: fraction of control; for IC50: read-out: PbLuc_IC50; for IC50 / PbLuc_max_inhibition (%): sheet 2nd round; for PbLuc_max_inhibition (%): maximal inhibition in dose response
HepG2-A16-CD81EGFP cells = details: sheet 2nd round; for IC50: read-out: Tox_IC50, HepG2 cytotoxicity; for Tox_max_inhibition (%): maximal inhibition in dose response
[2] = Pb-Luc exoerythrocytic stage, 10-point dose response, top concentration 10
[3] = second series of columns (replicate)
[4] = first series of dose-response columns
[5] = second series of dose-response columns

Cc1noc(C)c1S(=O)(=O)N(C)C[C@H]1OCc2cn(nn2)CCCC(=O)N([C@@H](C)CO)C[C@@H]1C [BRD-K72210630-001-02-7]
normalized signal at concentration 0.000508053 ([1]; first series of columns): 0.823 | normalized signal at concentration 0.00152416 ([1]; first series of columns): 0.7982 | normalized signal at concentration 0.00457247 ([1]; first series of columns): 0.9501 | normalized signal at concentration 0.0137174 ([1]; first series of columns): 0.8214 | normalized signal at concentration 0.0411523 ([1]; first series of columns): 0.9732 | normalized signal at concentration 0.123457 ([1]; first series of columns): 0.8751 | normalized signal at concentration 0.37037 ([1]; first series of columns): 1.086 | normalized signal at concentration 1.11111 ([1]; first series of columns): 0.9189 | normalized signal at concentration 3.33333 ([1]; first series of columns): 0.9135 | normalized signal at concentration 10 ([1]; first series of columns): 1.047 | IC50 [1, 2]: > 10 µM | normalized signal at concentration 0.000508053 [1, 3]: 1.029 | normalized signal at concentration 0.00152416 [1, 3]: 0.9027 | normalized signal at concentration 0.00457247 [1, 3]: 0.8403 | normalized signal at concentration 0.0137174 [1, 3]: 1.03 | normalized signal at concentration 0.0411523 [1, 3]: 0.8593 | normalized signal at concentration 0.123457 [1, 3]: 1 | normalized signal at concentration 0.37037 [1, 3]: 0.7692 | normalized signal at concentration 1.11111 [1, 3]: 0.8393 | normalized signal at concentration 3.33333 [1, 3]: 0.8793 | normalized signal at concentration 10 [1, 3]: 0.8029 | PbLuc_max_inhibition (%) [1]: 23% | IC50 (HepG2-A16-CD81EGFP cells): > 10 µM | Tox_max_inhibition (%) (HepG2-A16-CD81EGFP cells): 5%

C[C@@H]1CN([C@H](C)CO)C(=O)c2cc(N(C)C)ccc2O[C@@H](C)CCCCO[C@H]1CN(C)S(=O)(=O)c1ccc(F)cc1 [BRD-K72687327-001-01-6]
normalized signal at concentration 10 [1, 4]: 0.73 | normalized signal at concentration 0.000508053 ([1]; first series): 1.09 | normalized signal at concentration 0.00152416 ([1]; first series): 1.10 | normalized signal at concentration 0.00457247 ([1]; first series): 0.91 | normalized signal at concentration 0.0137174 ([1]; first series): 1.11 | normalized signal at concentration 0.0411523 ([1]; first series): 0.89 | normalized signal at concentration 0.123457 ([1]; first series): 0.84 | normalized signal at concentration 0.37037 ([1]; first series): 0.92 | normalized signal at concentration 1.11111 ([1]; first series): 0.97 | normalized signal at concentration 3.33333 ([1]; first series): 1.01 | IC50 ([1]; Broad compounds, dose response): > 10 µM | normalized signal at concentration 10 [1, 5]: 0.75 | normalized signal at concentration 0.000508053 ([1]; second series): 0.96 | normalized signal at concentration 0.00152416 ([1]; second series): 1.08 | normalized signal at concentration 0.00457247 ([1]; second series): 0.94 | normalized signal at concentration 0.0137174 ([1]; second series): 1.05 | normalized signal at concentration 0.0411523 ([1]; second series): 1.15 | normalized signal at concentration 0.123457 ([1]; second series): 0.88 | normalized signal at concentration 0.37037 ([1]; second series): 1.15 | normalized signal at concentration 1.11111 ([1]; second series): 1.02 | normalized signal at concentration 3.33333 ([1]; second series): 1.11 | PbLuc_max_inhibition (%) [1]: 27% | IC50 (HepG2-A16-CD81EGFP cells): > 10 µM | Tox_max_inhibition (%) (HepG2-A16-CD81EGFP cells): 11%

COc1ccccc1NC(=O)N1C[C@@H]2N[C@H](C1)C2c1ccc(/C=C/c2ccccc2)cc1 (stereo partly drawn) [BRD-K72765192-019-01-4]
normalized signal at concentration 0.000508053 ([1]; first series of columns): 0.9244 | normalized signal at concentration 0.00152416 ([1]; first series of columns): 0.9767 | normalized signal at concentration 0.00457247 ([1]; first series of columns): 0.9222 | normalized signal at concentration 0.0137174 ([1]; first series of columns): 1.063 | normalized signal at concentration 0.0411523 ([1]; first series of columns): 0.9659 | normalized signal at concentration 0.123457 ([1]; first series of columns): 0.9808 | normalized signal at concentration 0.37037 ([1]; first series of columns): 1.083 | normalized signal at concentration 1.11111 ([1]; first series of columns): 0.9875 | normalized signal at concentration 3.33333 ([1]; first series of columns): 1.091 | normalized signal at concentration 10 ([1]; first series of columns): 0.9372 | IC50 [1, 2]: > 10 µM | normalized signal at concentration 0.000508053 [1, 3]: 0.82 | normalized signal at concentration 0.00152416 [1, 3]: 0.9053 | normalized signal at concentration 0.00457247 [1, 3]: 1.027 | normalized signal at concentration 0.0137174 [1, 3]: 0.8721 | normalized signal at concentration 0.0411523 [1, 3]: 0.9154 | normalized signal at concentration 0.123457 [1, 3]: 0.911 | normalized signal at concentration 0.37037 [1, 3]: 1.02 | normalized signal at concentration 1.11111 [1, 3]: 0.9038 | normalized signal at concentration 3.33333 [1, 3]: 0.8733 | normalized signal at concentration 10 [1, 3]: 0.8146 | PbLuc_max_inhibition (%) [1]: 19% | IC50 (HepG2-A16-CD81EGFP cells): > 10 µM | Tox_max_inhibition (%) (HepG2-A16-CD81EGFP cells): 5.61%

C[C@@H]1CCCCO[C@@H](CN(C)S(=O)(=O)c2ccc(F)cc2)[C@@H](C)CN([C@@H](C)CO)C(=O)c2cc(N(C)C)ccc2O1 [BRD-K74261250-001-01-9]
normalized signal at concentration 10 [1, 4]: 0.8467 | normalized signal at concentration 0.000508053 ([1]; first series): 1.172 | normalized signal at concentration 0.00152416 ([1]; first series): 0.9183 | normalized signal at concentration 0.00457247 ([1]; first series): 0.77 | normalized signal at concentration 0.0137174 ([1]; first series): 1.0389 | normalized signal at concentration 0.0411523 ([1]; first series): 0.8236 | normalized signal at concentration 0.123457 ([1]; first series): 0.9547 | normalized signal at concentration 0.37037 ([1]; first series): 1.005 | normalized signal at concentration 1.11111 ([1]; first series): 0.9156 | normalized signal at concentration 3.33333 ([1]; first series): 1.13 | IC50 ([1]; Broad compounds, dose response): > 10 µM | normalized signal at concentration 10 [1, 5]: 0.7483 | normalized signal at concentration 0.000508053 ([1]; second series): 1.01 | normalized signal at concentration 0.00152416 ([1]; second series): 0.834 | normalized signal at concentration 0.00457247 ([1]; second series): 1.154 | normalized signal at concentration 0.0137174 ([1]; second series): 0.7879 | normalized signal at concentration 0.0411523 ([1]; second series): 0.9255 | normalized signal at concentration 0.123457 ([1]; second series): 1.124 | normalized signal at concentration 0.37037 ([1]; second series): 0.8451 | normalized signal at concentration 1.11111 ([1]; second series): 0.9426 | normalized signal at concentration 3.33333 ([1]; second series): 1.1 | PbLuc_max_inhibition (%) [1]: 25% | IC50 (HepG2-A16-CD81EGFP cells): > 10 µM | Tox_max_inhibition (%) (HepG2-A16-CD81EGFP cells): 6.44%
